Key:
STP10 (AtSTP10) [1] = molecular target: T1, STP10 (AtSTP10) (Arabidopsis thaliana, UniProt Q9LT15); test: competition of […]glucose uptake in STP10-expressing yeast; also direct […]galactose uptake; assay type: cell-based; conditions: 10 µM [14C]glucose, 10-fold excess (100 µM) unlabelled competitor
T1 sequence (Q9LT15 1-514): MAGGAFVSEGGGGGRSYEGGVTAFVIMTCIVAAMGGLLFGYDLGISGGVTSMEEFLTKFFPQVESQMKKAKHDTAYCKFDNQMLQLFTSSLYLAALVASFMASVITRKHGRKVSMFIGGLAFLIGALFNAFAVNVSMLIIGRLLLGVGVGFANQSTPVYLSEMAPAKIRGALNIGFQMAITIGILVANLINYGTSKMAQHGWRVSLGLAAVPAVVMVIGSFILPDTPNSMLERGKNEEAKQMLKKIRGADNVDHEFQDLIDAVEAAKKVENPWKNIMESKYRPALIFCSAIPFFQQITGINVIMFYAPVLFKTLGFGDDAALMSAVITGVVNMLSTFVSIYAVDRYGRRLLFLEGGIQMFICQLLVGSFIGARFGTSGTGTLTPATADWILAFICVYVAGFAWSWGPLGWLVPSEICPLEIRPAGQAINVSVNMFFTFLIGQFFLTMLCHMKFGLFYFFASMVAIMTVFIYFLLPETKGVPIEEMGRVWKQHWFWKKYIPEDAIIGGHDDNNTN

STP10 (AtSTP10) [2] = molecular target: T1, STP10 (AtSTP10); test: competition of […]glucose uptake in STP10-expressing yeast; assay type: cell-based; conditions: 10 µM [14C]glucose, 10-fold excess (100 µM) unlabelled competitor

Compound | % remaining [14C]glucose uptake (STP10 (AtSTP10) [1]) [%] | % remaining [14C]glucose uptake (STP10 (AtSTP10) [2]) [%]
OC[C@H]1OC(O)[C@H](O)[C@@H](O)[C@H]1O (some centres unmarked) [galactose] | 41 | –
OC[C@H]1OC(O)[C@@H](O)[C@@H](O)[C@@H]1O (some centres unmarked) [mannose] | – | 64
